Several values for one entry are separate records, joined by “and”; a condition that tells them apart may be missing. Equal entries are not always repeated.
What was measured:
[1] = tested on: Peripheral blood basophils (PBB); assay: Anti-IgE-induced IL-13 secretion from PBB (ELISA); type: cell-based, human; conditions: for Mean % Inhibition of IL-13 Secretion: 15 ng/ml anti-IgE
Description: (§1) PBB were obtained from two sources: donors recruited under an IRB-approved protocol after informed consent or from leukopheresis packs obtained from the Johns Hopkins Hemapheresis Center. PBB were purified to ≧99% purity as described in Vonakis, B. M., Gibbons S Jr, Sora, R., Langdon, J. M., and MacDonald, S. M. J. Allergy Clin. Immunol. 108, 822-831 (2001), and Miura, K., Saini, S. S., Gauvreau, G., and MacGlashan, D. W., Jr. J. Immunol. 167, 2282-2291 (2001). Purified PBB were incubated overnight (20 hours) with a fullerene derivative (5 μg/ml) or vehicle control and a minimal (non-stimulatory) concentration of IL-3 (2 pg/ml) to prevent apoptosis. The next day, cells were washed and aliquoted for the histamine release assay by treatment with 0.1 mg/ml of goat polyclonal anti-IgE, buffer alone (spontaneous release) or perchloric acid (total histamine determination). Histamine was quantified in cell free supernatants using automated fluorimetry in duplicate. In a second set of experiments the two fullerene derivatives (at 5 μg/ml) were incubated with PBB for 20 hours, washed cells stimulated with 15 ng/ml anti-IgE for 18 hours in duplicate and supernatants collected for quantification of IL-13 by in-house ELISA. The optimal doses of anti-IgE are chosen for activation of PBB.

mice = assay: In vivo administration of TGA for three weeks: behavior, gross pathology; conditions: i.v. daily; 200 ng/three weeks
Source text: Taken together, the derivatives described herein are not cytotoxic to several cell lines tested and appear to have no acute in vivo cytotoxic effects.

[2] = tested on: E74-like factor 2 (ELF-2); assay: ELF-2 gene expression (microarray) in MC; type: cell-based, human; conditions: gene level
Description: (§2) Mast cells (1×10^7 cell/condition; each condition performed in triplicate) were incubated with or without fullerene derivatives as above and incubated with or without anti-FcεRI antibodies for 10 minutes, supernatants were removed (to remove pre-formed mediators), and fresh warm medium containing anti-FcεRI antibodies (14 ml) added for 2 hours. Cells were centrifuged, the supernatant and the pellet immediately frozen and microarray performed using the Human Whole Genome OneArray™ gene expression profiling service (Phalanx Biotech Group). Separate samples, assayed in parallel were lysed and protein expression analyzed by Western blotting or flow cytometry (CD45) as described in Kepley, C. L., Pfeiffer, J., Wilson, B. W., Schwartz, L. B., and Oliver, J. M. J. Leukocyte Biol. 64, 474-483 (1998).
In order to examine the genes most affected by fullerene derivative preincubation the resulting values were sorted and filtered the following way. First, the mean (±SD) of the six values from each condition for each of the 30,970 genes was calculated. Second, only normalized value intensities of >100 were included so that follow up detection of protein levels would be more likely to be successful. […]

[3] = tested on: Peripheral blood basophils (PBB); assay: Anti-IgE-induced histamine release (degranulation) from PBB; type: cell-based, human
Description: as §1

Mast cells (MC) = assay: Anti-FcεRI-induced MC degranulation (β-hexosaminidase release); type: cell-based, human; conditions: for Mean percent degranulation, TGA + XL: TGA Treatment @ 10 μg/ml, Exp 1-5 and Average (±SD)
Description: MC are a component of the inflammatory response. As such, cultures of human Mast Cells can be used for screening the activity of different fullerene derivatives to evaluate their potential activity in animal models. In this example, human skin tissue was received from the Cooperative Human Tissue Network and MC purified and cultured as described in Kepley, C. L. Int. Arch. Allergy Immunol. 138, 29-39 (2005). The MC were cultured in media containing stem cell factor which is removed from the culture 24 hours prior to experimentation.
For activation, MC were suspended in fresh medium (without cytokines) and incubated for 16 hours with or without fullerene derivatives at 37° C. in a 6% CO2 incubator. […] The next morning, cells were washed and stimulated with anti-FcεRI Abs (3B4; 1 μg/ml) for 30 minutes (β-hexosaminidase) or overnight (GM-CSF) at 37° C. in a 6% CO2 incubator and mediator release measured as described in Zhao, W., Kepley, C. L., Morel, P. A., Okumoto, L. M., Fukuoka, Y., and Schwartz, L. B. J Immunol. 177, 694-701 (2006). All MC mediator release studies were performed in triplicate.
Cells were cultured with fixed concentrations of a fullerene derivative (10 μg/ml; FIGS. 8A and 9A) or different concentrations (FIGS. 8B and 9B) for 16 h, washed and stimulated for 30 min (FIGS. 8A and 8B) or 24 hours (FIGS. 9A and 9B) with optimal concentrations of αanti-FcεRI Abs (3B4; 1 μg/ml). Cells were centrifuged and β-hexosaminidase release and GMCSF levels determined by ELISA.

FcεRI activated genes = assay: Gene microarray of FcεRI-activated MC; type: cell-based, human
Description: as §2
For microarray RNA was isolated using the Ambion MessageAmp aRNA kit; all samples passed the internal quality control checks. For hybridization each sample was run in triplicate. Optical density was measured by NanoDrop ND-1000. The ratio of absorbance at 260 nm and 280 nm provides an estimate of RNA purity. […] The reactive amino group of 5-(3-aminoallyl)-UTP/5-(3-aminoallyl)-dUTP was used to conjugate the purified aRNA/cDNA with the NHS-CyDye. Labeling efficiency was calculated by the concentration of CyDye and aRNA/cDNA which was above 10. For hybridization 10 μg Cy5-labeled aRNA was utilized by the Phalanx Hybridization Protocol Array Version HOA 4.3.
Pearson correlation tables (R values) for each technical repeat were calculated from raw log 2 intensity (R) and normalized log 2 intensity (N) values and compared to each other. Only probes with P value (detected) less than 0.05 were included in the calculation. […] Greater than 95% of the samples had R values of 0.8 or greater indicating strong correlation between the two parameters.
In order to examine the genes most affected by fullerene derivative preincubation the resulting values were sorted and filtered the following way. First, the mean (±SD) of the six values from each condition for each of the 30,970 genes was calculated. […]

[4] = PBB, maximum inhibition set to 100%

C70-tetraglycolic acid [TGA] was tested, and the “FD + anti-IgE (mean ± SEM, ng/ml), IL-13” value ([1]; 5 μg/ml FD, 20 hours, 15 ng/ml anti-IgE 18 hours) was 79.3 ± 20.9 ng/mL, the “Mean % Inhibition of IL-13 Secretion” value ([1]; 5 μg/ml FD, listed as C70-TGA) was 52.4% and the “Mean % Inhibition of IL-13 Secretion” value ([1]; 5 μg/ml FD, listed as C70-tetraglucolate) was “significant inhibition”. For the same substance, the “IC50 (IL-13-cytokine production)” value [1, 4] was 10.6 µg/mL, the “maximal inhibition of anti-IgE stimulated IL-13 secretion” value ([1]; detected at 0.5 μg/ml, mean, n=2) was 37.4% and the behavior (mice) was “no notable differences in behavior”. For the same substance, the gross pathological examination (mice) was “no abnormalities”, the ELF-2 downregulated [2] was 47% and the “Mean % Inhibition of Histamine Release” value ([3]; 5 μg/ml FD vs vehicle control, listed as C70-TGA) was 15.8%. The “FD + anti-IgE (mean ± SEM), histamine release” value ([3]; 5 μg/ml FD, 20 hours, anti-IgE) was 39.4 ± 2.3, the “maximal inhibition of anti-IgE-induced histamine release” value ([3]; 50 µg/mL dose, mean±SEM, n=2-3) was 37.8±16.25% and the “IC50 (degranulation)” value [3, 4] was 9.9 µg/mL. The “Mean percent degranulation, TGA + XL” value (Mast cells (MC)) was 52.7% and 39.1% and 50.1% and 53.4% and 40.1%, the “Mean percent degranulation, TGA + XL” value (Mast cells (MC); mean) was 47.1 (±6.9) percent and the “IC50 (degranulation)” value (Mast cells (MC); maximum inhibition set to 100%) was 10.9 (±3.5) μg/ml. For the same substance, the “genes whose FcεRI-induced activation was reduced” value (FcεRI activated genes) was “over 1000”, the “genes decreased at least 20% compared to non treated cells” value (FcεRI activated genes; 2 hours FcεRI activation) was 2,603 and the “genes with greater than 50% inhibition” value (FcεRI activated genes; 2 hours FcεRI activation) was 515.

Reference: US20110251158A1, “FULLERENE THERAPIES FOR INFLAMMATION AND INHIBITION OF BUILD-UP OF ARTERIAL PLAQUE” (Luna Innovations Incorporated, priority 2008, published 2011)
